System: Meth-A fibrosarcoma cells
Assay: Inhibition of growth of Meth-A fibrosarcoma in mice (compound mixed with tumor cells)
Assay type: in vivo
Details: 100 μg mixed with 5×10^4 Meth-A fibrosarcoma cells, intracutaneous, female Balb/C mice
Method: For example, 100 μg of the compounds obtained in accordance with the present invention suspended in a phosphate-buffered saline and mixed with 5×10^4 Meth-A fibrosarcoma cells, followed by intracutaneous administration to female Balb/C mice. The effects to inhibit the growth of Meth-A were examined at 1 week intervals until the 4th week after the administration.

Measured: The number of tumor-free mice/the number of mice tested

2-(2-acetamido-2,6-dideoxy-6-mycoloylamino-D-glucopyranos-3-O-yl)-D-propionyl-L-alanyl-D-isoglutamine [Example 7]
10/10: week 2 | week 3 | week 4

2-(2-acetamido-2,6-dideoxy-6-mycoloylamino-D-glucopyranos-3-O-yl)-D-propionyl-L-valyl-D-isoglutamine [Example 9]
10/10: week 1 | week 2 | week 3 | week 4
